Legend:
AsPC-1 HiBiT-KRASG12D = molecular target: T1, AsPC-1 HiBiT-KRASG12D (Homo sapiens, UniProt P01116, G12D); test: HiBiT degradation assay (G12D), AsPC-1 HiBiT-KRASG12D cells; assay type: cell-based; settings: 24 hours treatment; for Dmax: ASPC1, AsPC-1 HiBiT-KRASG12D cells, maximum degradation observed; for DC50: AsPC-1 HiBiT-KRASG12D cells, HiBiT luminescence
T1 construct: insert the HiBiT tag onto the N-terminus of one or more of the endogenous KRAS alleles; endogenous in cells; host or cells: AsPC-1 (ATCC CRL-1682), CRISPR-Cas9 knock-in clone, one tagged allele
Outline: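 AsPC-1 cells (homozygous G12D) carrying a CRISPR knock-in N-terminal HiBiT tag on endogenous KRAS were treated with compounds for 24 hours at 37° C, 5% CO2, in triplicate. Alamar blue viability was read first, then cells were washed and lysed with Nano-Glo HiBiT reagent for 45 minutes before luminescence reading.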

SW1573 HiBiT-KRASG12C = molecular target: T2, SW1573 HiBiT-KRASG12C (Homo sapiens, UniProt P01116, G12C); test: HiBiT degradation assay (G12C), SW1573 HiBiT-KRASG12C cells; assay type: cell-based; settings: 24 hours treatment; for DC50: HiBiT luminescence;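 for DC50: Letter grades: C is 1000 to 3000 nM and D is above 3000 nM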
T2 construct: expressed in transfected cells
Outline: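 SW1573 cells expressing N-terminal HiBiT-KRASG12C (clone E6) treated 24 h at 37 °C with 10 μM to 508 pM compound in 0.5% DMSO, triplicate. HiBiT lytic luminescence normalized to DMSO, 4-parameter fit gives DC50 and Dmax; points with ≥50% alamar blue viability loss excluded.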

T2 sequence (P01116 1-188 isoform P01116-2 G12C): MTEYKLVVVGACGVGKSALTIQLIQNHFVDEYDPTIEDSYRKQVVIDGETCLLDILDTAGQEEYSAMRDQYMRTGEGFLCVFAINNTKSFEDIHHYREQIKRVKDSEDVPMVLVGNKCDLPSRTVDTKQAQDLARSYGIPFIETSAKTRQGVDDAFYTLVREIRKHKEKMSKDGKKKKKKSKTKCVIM
T1 sequence (P01116 1-188 isoform P01116-2 G12D): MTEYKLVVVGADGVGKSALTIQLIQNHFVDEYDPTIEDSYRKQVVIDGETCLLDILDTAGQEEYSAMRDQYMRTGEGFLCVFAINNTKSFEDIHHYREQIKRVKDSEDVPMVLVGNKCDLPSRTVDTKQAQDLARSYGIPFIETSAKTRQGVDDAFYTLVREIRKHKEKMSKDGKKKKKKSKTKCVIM

Row | SMILES | Dmax (AsPC-1 HiBiT-KRASG12D) [%] | DC50 (AsPC-1 HiBiT-KRASG12D) [µM] | DC50 (SW1573 HiBiT-KRASG12C) [µM] | Dmax (SW1573 HiBiT-KRASG12C; maximum degradation observed) [%]
1 | CCc1cccc2cc(O)cc(-c3ncc4c(N5CCCCCC5)nc(OC[C@]56CCCN5[C@@H](COC(=O)N5CCN(c7cc([C@H](C(=O)N8C[C@H](O)C[C@H]8C(=O)N[C@@H](C)c8ccc(-c9scnc9C)cc8)C(C)C)on7)CC5)CC6)nc4c3F)c12 [Compound 45, [(3R,7aR)-7a-({[4-(azepan-1-yl)-7-(8-ethyl-3-hydroxynaphthalen-1-yl)-8-fluoropyrido[4,3-d]pyrimidin-2-yl]oxy}methyl)-hexahydro-1H-pyrrolizin-3-yl]methyl 4-{5-[(2R)-1-[(2S,4R)-4-hydroxy-2-{[(1S)-1-[4-(4-methyl-1,3-thiazol-5-yl)phenyl]ethyl]carbamoyl}pyrrolidin-1-yl]-3-methyl-1-oxobutan-2-yl]-1,2-oxazol-3-yl}piperazine-1-carboxylate] | 80 to 100 | < 0.6 | ≤ 0.6 | 60 to 80
2 | CCc1cccc2cc(O)cc(-c3ncc4c(N5CCCCCC5)nc(OC[C@]56CCCN5[C@@H](COC(=O)N5CCN(c7cc([C@@H](C(=O)N8C[C@H](O)C[C@H]8C(=O)N[C@@H](C)c8ccc(-c9scnc9C)cc8)C(C)C)on7)CC5)CC6)nc4c3F)c12 [Compound 46, [(3R,7aR)-7a-({[4-(azepan-1-yl)-7-(8-ethyl-3-hydroxynaphthalen-1-yl)-8-fluoropyrido[4,3-d]pyrimidin-2-yl]oxy}methyl)-hexahydro-1H-pyrrolizin-3-yl]methyl 4-{5-[(2S)-1-[(2S,4R)-4-hydroxy-2-{[(1S)-1-[4-(4-methyl-1,3-thiazol-5-yl)phenyl]ethyl]carbamoyl}pyrrolidin-1-yl]-3-methyl-1-oxobutan-2-yl]-1,2-oxazol-3-yl}piperazine-1-carboxylate] |  | > 3 | > 3 | 
3 | Cc1ncsc1-c1ccc([C@H](C)NC(=O)[C@@H]2C[C@@H](O)CN2C(=O)[C@@H](c2cc(OCC3CCN(CCOc4nc(N5CC6CCC(C5)N6)c5cnc(-c6c(OC(F)(F)F)ccc7[nH]ncc67)c(F)c5n4)CC3)no2)C(C)C)cc1 [Compound 47, (2S,4R)-1-[(2R)-2-{3-[(1-{2-[(4-{3,8-diazabicyclo[3.2.1]octan-3-yl}-8-fluoro-7-[5-(trifluoromethoxy)-1H-indazol-4-yl]pyrido[4,3-d]pyrimidin-2-yl)oxy]ethyl}piperidin-4-yl)methoxy]-1,2-oxazol-5-yl}-3-methylbutanoyl]-4-hydroxy-N-[(1S)-1-[4-(4-methyl-1,3-thiazol-5-yl)phenyl]ethyl]pyrrolidine-2-carboxamide] |  | > 3 | > 3 | 
4 | C#Cc1cccc2cc(O)cc(-c3ncc4c(N5CC6CCC(C5)N6)nc(OCCN5CCC(COc6cc([C@H](C(=O)N7C[C@H](O)C[C@H]7C(=O)N[C@@H](C)c7ccc(-c8scnc8C)cc7)C(C)C)on6)CC5)nc4c3F)c12 [Compound 48, (2S,4R)-1-[(2R)-2-{3-[(1-{2-[(4-{3,8-diazabicyclo[3.2.1]octan-3-yl}-7-(8-ethynyl-3-hydroxynaphthalen-1-yl)-8-fluoropyrido[4,3-d]pyrimidin-2-yl)oxy]ethyl}piperidin-4-yl)methoxy]-1,2-oxazol-5-yl}-3-methylbutanoyl]-4-hydroxy-N-[(1S)-1-[4-(4-methyl-1,3-thiazol-5-yl)phenyl]ethyl]pyrrolidine-2-carboxamide] | 80 to 100 | < 0.6 | > 3 | 

Source: patent publication US20250206732A1, “COMPOUNDS AND METHODS FOR THE TARGETED DEGRADATION OF KRAS” (Arvinas Operations, Inc., priority 2022, published 2025)
